Experimental data from ChEMBL document CHEMBL1201862, “PubChem BioAssay data set” (2004).
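In this assay, cells in 96-well plates receive the compound at five concentrations for 48 hours. Endpoints are linearly interpolated between the surrounding concentrations. Abbreviation: GI50, concentration required for 50% inhibition of growth.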 Calls of active or inactive are those of the source. No stated cut-off is given here; in the data, active = GI50 up to about 1.1 µM and inactive = higher.

Experiments:
Experiment in all cases: inhibition of tumour cell growth, NCI panel, 48 h
[1] = system: 786-0
[2] = system: A498
[3] = system: A549
[4] = system: ACHN
[5] = system: BT-549
[6] = system: CAKI-1
[7] = system: CCRF-CEM
[8] = system: COLO 205
[9] = system: DU-145
[10] = system: EKVX
[11] = system: HCT-116
[12] = system: HCT-15
[13] = system: HL-60
[14] = system: HOP-62
[15] = system: HOP-92
[16] = system: HT-29
[17] = system: Hs-578T
[18] = system: IGROV-1
[19] = system: K562
[20] = system: KM12
[21] = system: LOX IMVI
[22] = system: M14
[23] = system: MCF7
[24] = system: MDA-MB-231
[25] = system: MDA-MB-435
[26] = system: MDA-N
[27] = system: MOLT-4
[28] = system: Malme-3M
[29] = system: NCI-H226
[30] = system: NCI-H23
[31] = system: NCI-H460
[32] = system: NCI-H522
[33] = system: NCI/ADR-RES
[34] = system: OVCAR-3
[35] = system: OVCAR-4
[36] = system: OVCAR-5
[37] = system: OVCAR-8
[38] = system: PC-3
[39] = system: RPMI-8226
[40] = system: RXF 393
[41] = system: SF-268
[42] = system: SF-295
[43] = system: SF-539
[44] = system: SK-MEL-28
[45] = system: SK-MEL-2
[46] = system: SK-MEL-5
[47] = system: SK-OV-3
[48] = system: SN12C
[49] = system: SNB-19
[50] = system: SNB-75
[51] = system: SR
[52] = system: SW-620
[53] = system: T47D
[54] = system: TK-10
[55] = system: U-251
[56] = system: UACC-257
[57] = system: UACC-62
[58] = system: UO-31

Measured: GI50

CN(C)CCCNc1c2c(=O)n(C)c(=O)nc-2n(C)c2ccccc12
20.1 µM: [12]
active: [13] 0.966 µM
inactive: [1] 5.68 µM | [2] 9.27 µM | [3] 4.74 µM | [4] 5.45 µM | [5] 12.7 µM | [6] 7.13 µM | [7] 3.4 µM | [8] 3.21 µM | [9] 6.41 µM | [10] 6.43 µM | [11] 3.69 µM | [14] 3.75 µM | [15] 17 µM | [16] 4.26 µM | [17] 10.1 µM | [18] 15.6 µM | [19] 4.8 µM | [20] 3.58 µM | [21] 3.87 µM | [22] 5.02 µM | [23] 3.82 µM | [24] 6 µM | [25] 3.94 µM | [26] 4.2 µM | [27] 3.01 µM | [28] 3.11 µM | [29] 5.07 µM | [30] 7.41 µM | [31] 2.85 µM | [32] 2.45 µM | [33] 67 µM | [34] 1.25 µM | [35] 4.72 µM | [36] 6.1 µM | [37] 4.83 µM | [38] 4.08 µM | [39] 7.1 µM | [40] 7.8 µM | [41] 5.38 µM | [42] 6.43 µM | [43] 6.73 µM | [44] 10.4 µM | [45] 2.52 µM | [46] 6.21 µM | [47] 6.24 µM | [48] 4.43 µM | [49] 6.56 µM | [50] 5.15 µM | [51] 3 µM | [52] 3.7 µM | [53] 5.12 µM | [54] 5.26 µM | [55] 3.26 µM | [56] 4.86 µM | [57] 5.22 µM | [58] 4.51 µM
